Experiments:
E. coli DH5α cells [1] = assay: Inhibition of bacterial cell growth by CPPs (Max OD600 relative to control); type: cell-based, Escherichia coli; conditions: for Max OD (%) (Figure 3f): E. coli DH5α diluted 1/1000 in LB, 5 μg TAMRA-CPP (0.1 μg/μL), OD600 monitored 18 h, max OD of treated cells / max OD of control cells
Procedure: E. coli DH5α cells were grown until OD600 = 1 at 37 °C with shaking at 200 rpm. […] Then, cell growth (OD600) was monitored for 18 h by using the Synergy^TM H1 hybrid multi-mode microplate reader (BioTek, Vermont, USA). As a control, we used E. coli cells that were not treated with CPPs.

E. coli DH5α cells [2] = assay: Penetration efficiency of TAMRA-labeled CPPs, electroporation-based method, flow cytometry; type: cell-based, Escherichia coli; conditions: library CPPs, E. coli, electroporation, Tris buffer pH 7.5, 1 h, mean of n = 3–5
From the text: (§1) (Fig. 2a). […] First, we prepared electrocompetent and chemically competent cells.

HEK293 cells = conditions: literature knowledge; cited from earlier work
From the text: To date, mostly CPPs have been studied and utilized in mammalian cells, but in this study, we studied CPPs in bacteria, E. coli. Thus, it would be very useful to find the similarities and differences of CPPs between prokaryotes and eukaryotes.

E. coli DH5α cells [3] = assay: Penetration efficiency of TAMRA-labeled CPPs, chemical (CaCl2) treatment method, flow cytometry; type: cell-based, Escherichia coli; conditions: TAMRA fluorescence intensity in E. coli, library screen of 98 CPPs
From the text: as §1

Methylomonas sp. DH-1 = assay: Marker gene excision using CPP-conjugated Cre recombinase; type: cell-based; conditions: Methylomonas sp. DH-1, 50 μL protein (0.05 μg/μL), electroporation, 4 mM NiCl2 selection
Procedure: For the marker gene excision experiment, the pIns-LKTL plasmid was transformed into Methylomonas sp. DH-1, and then the marker genes flanked with loxP sites (loxP-kan^R-tetA-loxP) were integrated into a non-coding region of the Methylomonas sp. DH-1 genome. To select correctly knocked-in cells, the transformed cells were grown on an NMS agar plate containing kanamycin (10 μg/mL) and 30% methane for 3–7 days. The knocked-in cells were harvested from the plate and washed twice with distilled water, and 50 μL of cell suspension was mixed with 50 μL of CPP-conjugated Cre recombinase (0.05 μg/μL). […] After electroporation, cells were incubated in two types of recovery buffers (20 mM Tris-HCl at pH 7.5 or NMS medium) for 3 h and then spread on NMS agar plates containing 4 mM NiCl2. The colonies grown on the NiCl2 plates were transferred to an NMS agar plate and a kanamycin-containing NMS agar plate to confirm the excision of the marker genes.

KLPVM [CPP 63, TAMRA-labeled CPP of the 98-CPP library]
Max OD (%) (Figure 3f) (E. coli DH5α cells [1]; replicate 1): 69.833%
Max OD (%) (Figure 3f) (E. coli DH5α cells [1]; replicate 2): 72.8601%
Max OD (%) (Figure 3f) (E. coli DH5α cells [1]; replicate 3): 66.2839%
Growth rate (%) (E. coli DH5α cells [1]; E. coli growth with CPP, relative to control): 69.659%
Anti-bacterial activity (E. coli DH5α cells [1]; class (Cytotoxic / Safe), cutoff of 50%): Safe
Penetration efficiency (TAMRA fluorescence in E. coli) (E. coli DH5α cells [2]): low efficiency
Efficiency as CPP in mammalian cells (HEK293 cells): highly efficient
Penetration efficiency (TAMRA FI) (E. coli DH5α cells [3]): 26.6874

B1: Cre recombinase (No CPP): Cre recombinase without CPP, control (protein, UniProt P06956 1-343, looked up)
Recombinase cre: MSNLLTVHQNLPALPVDATSDEVRKNLMDMFRDRQAFSEHTWKMLLSVCRSWAAWCKLNNRKWFPAEPEDVRDYLLYLQARGLAVKTIQQHLGQLNMLHRRSGLPRPSDSNAVSLVMRRIRKENVDAGERAKQALAFERTDFDQVRSLMENSDRCQDIRNLAFLGIAYNTLLRIAEIARIRVKDISRTDGGRMLIHIGRTKTLVSTAGVEKALSLGVTKLVERWISVSGVADDPNNYLFCRVRKNGVAAPSATSQLSTRALEGIFEATHRLIYGAKDDSGQRYLAWSGHSARVGAARDMARAGVSIPEIMQAGGWTNVNIVMNYIRNLDSETGAMVRLLEDGD
Marker excision efficiency (%) (Methylomonas sp. DH-1; recovery in NMS buffer 3 h, replicate 1): 10.353%
Marker excision efficiency (%) (Methylomonas sp. DH-1; recovery in NMS buffer 3 h, replicate 2): 9.156%
Marker excision efficiency (%) (Methylomonas sp. DH-1; recovery in NMS buffer 3 h, replicate 3): 9.01%
Marker excision efficiency (%) (Methylomonas sp. DH-1; recovery in Tris-Cl buffer 3 h, replicate 1): 1.75%
Marker excision efficiency (%) (Methylomonas sp. DH-1; recovery in Tris-Cl buffer 3 h, replicate 2): 2.19%
Marker excision efficiency (%) (Methylomonas sp. DH-1; recovery in Tris-Cl buffer 3 h, replicate 3): 1.75%

Source: publication PMC7884711, “Identification of efficient prokaryotic cell-penetrating peptides with applications in bacterial biotechnology” (Communications Biology, 2021)
